Laboratory results from ChEMBL document CHEMBL4831534, “Design, Synthesis, and Monoamine Oxidase Inhibitory Activity of (+)-Cinchonaminone and Its Simplified Derivatives” (ACS Med Chem Lett, 2021).

How the values were obtained:
[1] = biological target: T1, Amine oxidase [flavin-containing] A (Homo sapiens, UniProt P21397); experiment: Inhibition of human recombinant MAO-A expressed in baculovirus infected BTI insect cells using luminogenic MAO substrate incubated for 1 hr by MAO-Glo assay
T1 sequence (P21397 whole entry): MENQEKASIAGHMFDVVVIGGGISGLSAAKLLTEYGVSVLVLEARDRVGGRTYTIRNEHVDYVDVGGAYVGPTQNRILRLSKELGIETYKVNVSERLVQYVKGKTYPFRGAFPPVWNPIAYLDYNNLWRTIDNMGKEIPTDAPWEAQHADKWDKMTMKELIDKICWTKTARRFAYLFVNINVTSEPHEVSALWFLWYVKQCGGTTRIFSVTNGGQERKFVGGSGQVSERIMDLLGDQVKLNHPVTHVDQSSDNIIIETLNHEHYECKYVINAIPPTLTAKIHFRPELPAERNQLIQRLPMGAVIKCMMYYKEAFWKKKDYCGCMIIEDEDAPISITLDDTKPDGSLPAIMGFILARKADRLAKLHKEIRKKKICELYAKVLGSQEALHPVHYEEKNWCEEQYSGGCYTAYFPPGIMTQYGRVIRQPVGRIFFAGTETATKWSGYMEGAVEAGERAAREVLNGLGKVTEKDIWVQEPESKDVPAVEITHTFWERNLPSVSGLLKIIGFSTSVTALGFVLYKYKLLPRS

[2] = biological target: T2, Amine oxidase [flavin-containing] B (Homo sapiens, UniProt P27338); experiment: Inhibition of human recombinant MAO-B expressed in baculovirus infected BTI insect cells using luminogenic MAO substrate incubated for 1 hr by MAO-Glo assay
T2 sequence (P27338 whole entry): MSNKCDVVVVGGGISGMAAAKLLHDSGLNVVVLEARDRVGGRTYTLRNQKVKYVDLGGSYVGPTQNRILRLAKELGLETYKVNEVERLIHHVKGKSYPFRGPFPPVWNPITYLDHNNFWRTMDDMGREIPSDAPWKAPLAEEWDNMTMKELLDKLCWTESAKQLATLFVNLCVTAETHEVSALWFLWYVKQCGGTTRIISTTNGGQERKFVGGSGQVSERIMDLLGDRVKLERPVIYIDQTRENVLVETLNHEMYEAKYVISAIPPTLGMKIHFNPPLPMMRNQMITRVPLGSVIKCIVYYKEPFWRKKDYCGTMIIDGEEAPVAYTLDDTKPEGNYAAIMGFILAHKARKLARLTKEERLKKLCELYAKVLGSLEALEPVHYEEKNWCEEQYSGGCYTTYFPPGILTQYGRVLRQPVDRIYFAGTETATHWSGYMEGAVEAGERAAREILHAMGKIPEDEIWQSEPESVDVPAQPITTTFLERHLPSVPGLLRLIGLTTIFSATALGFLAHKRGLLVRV

Homo sapiens = organism: Homo sapiens; experiment: Selectivity index, ratio of IC50 for human recombinant MOA-A expressed in baculovirus infected BTI insect cells to IC50 for MAO-B expressed in baculovirus infected BTI insect cells; conditions: time 1.0 hrs

## O=C(CC1CCNCC1)c1[nH]c2ccccc2c1CCO
[1]
  IC50: > 1000 µM
[2]
  IC50: > 1000 µM

## C=C[C@H]1CNCC[C@H]1CC(=O)c1[nH]c2ccccc2c1CCO
[1]
  IC50: > 1000 µM
[2]
  IC50: 412 µM

## Cc1c(C(=O)CC2CCNCC2)[nH]c2ccccc12
[1]
  IC50: 82.5 µM
[2]
  IC50: 121 µM

## O=C(CC1CCNCC1)c1cc2ccccc2[nH]1
[1]
  IC50: 720 µM
[2]
  IC50: 66.6 µM
Homo sapiens
  Selectivity Index: 11

## C=C[C@@H]1CNCC[C@@H]1CC(=O)c1[nH]c2ccccc2c1CCO
[1]
  IC50: > 1000 µM
[2]
  IC50: 488 µM
